For test [1], the target named is T1, OsSNAT1 (rice recombinant SNAT1) (Oryza sativa, UniProt Q5KQI6).
T1 construct: N-terminal 83 residues deleted; E. coli, plasmid pET300-Δ83SNAT1; purified recombinant
Put plainly: HPLC-fluorescence of N-acetylserotonin formed. Format: biochemical.

The target of test [2] is T2, OsSNAT2 (rice recombinant SNAT2) (Oryza sativa, UniProt Q6Z1Y6).
T2 construct: N-terminal 34 residues deleted; purified recombinant
T2 sequence (Q6Z1Y6 35-200): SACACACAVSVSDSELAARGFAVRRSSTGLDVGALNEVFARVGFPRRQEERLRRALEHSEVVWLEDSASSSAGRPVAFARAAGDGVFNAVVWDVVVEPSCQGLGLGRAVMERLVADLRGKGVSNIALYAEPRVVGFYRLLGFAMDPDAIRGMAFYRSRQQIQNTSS
Put plainly: HPLC-fluorescence of N-acetylserotonin formed. Format: biochemical.

The structures appear in SMILES notation.

T1 sequence (Q5KQI6 84-254): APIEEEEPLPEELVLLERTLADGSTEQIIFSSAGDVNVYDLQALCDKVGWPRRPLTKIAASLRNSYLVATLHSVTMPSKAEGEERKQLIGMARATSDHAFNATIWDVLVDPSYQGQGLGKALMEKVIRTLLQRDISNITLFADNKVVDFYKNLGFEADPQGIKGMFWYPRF

Regarding `CCCCCCCc1ccc(CCc2cccc(O)c2C(=O)O)cc1` [MG149], the inhibition at 50 µM in test [1] was 80%. Also, in test [2], the inhibition at 100 µM is 28%.

Values taken from article PMC8145546, “Inhibition of Rice Serotonin N-Acetyltransferases by MG149 Decreased Melatonin Synthesis in Rice Seedlings” (Biomolecules, 2021).
